Source: PubChem BioAssay AID328 (DTP/NCI, 2004)
Several values for one entry are separate records, joined by “and”; a condition that tells them apart may be missing. Equal entries are not always repeated. Toxic doses and inconclusive results are not listed.

Test system: BDF1 mice, P388 leukemia ip, median survival T/C
Test: NCI In Vivo Anticancer Drug Screen. Data for tumor model P388 Leukemia (intraperitoneal) in B6D2F1 (BDF1) mice
Details: endpoint: median survival time, higher = longer survival
In short: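 T/C = treated-group survival ÷ vehicle-control survival; tumour transplanted into mice before dosing.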

[1] = dose: 12.5 mg/kg/injection, schedule: Q04DX003 (ip), vehicle: saline with Tween-80
[2] = dose: 100.0 mg/kg/injection, schedule: Q04DX003 (ip), vehicle: saline with Tween-80
[3] = dose: 200.0 mg/kg/injection, schedule: Q04DX003 (ip), vehicle: saline with Tween-80
[4] = dose: 100.0 mg/kg/injection, schedule: Q04DX003 (ip), vehicle: saline
[5] = dose: 100.0 mg/kg/injection, schedule: Q01DX009 (ip), vehicle: saline with Tween-80
[6] = dose: 200.0 mg/kg/injection, schedule: Q01DX009 (ip), vehicle: saline with Tween-80
[7] = dose: 400.0 mg/kg/injection, schedule: Q01DX009 (ip), vehicle: saline with Tween-80
[8] = dose: 400.0 mg/kg/injection, schedule: Q04DX003 (ip), vehicle: saline with Tween-80
[9] = dose: 6.25 mg/kg/injection, schedule: Q01DX009 (ip), vehicle: saline with Tween-80
[10] = dose: 12.5 mg/kg/injection, schedule: Q01DX009 (ip), vehicle: saline with Tween-80
[11] = dose: 25.0 mg/kg/injection, schedule: Q01DX009 (ip), vehicle: saline with Tween-80
[12] = dose: 25.0 mg/kg/injection, schedule: Q04DX003 (ip), vehicle: saline with Tween-80
[13] = dose: 50.0 mg/kg/injection, schedule: Q01DX009 (ip), vehicle: saline with Tween-80

O=C1NC(=O)C2(CCCc3ccc(N(CCCl)CCCl)cc32)N1 (configuration not stated)
T/C (dose: 6.25 mg/kg/injection, schedule: Q04DX003 (ip), vehicle: saline with Tween-80): 150 % of control | T/C [1]: 170 % of control | T/C [2]: 227 % of control | T/C (dose: 132.0 mg/kg/injection, schedule: Q04DX003 (ip), vehicle: saline with Tween-80): 195 % of control | T/C [3]: 229 % of control and 240 % of control | T/C (dose: 300.0 mg/kg/injection, schedule: Q04DX003 (ip), vehicle: saline with Tween-80): 191 % of control

NC1(CO)COC(c2ccccc2)OC1 (configuration not stated)
T/C (dose: 25.0 mg/kg/injection, schedule: Q01DX009 (ip), vehicle: saline): 100 % of control and 105 % of control | T/C (dose: 50.0 mg/kg/injection, schedule: Q01DX009 (ip), vehicle: saline): 105 % of control and 118 % of control | T/C (dose: 50.0 mg/kg/injection, schedule: Q04DX003 (ip), vehicle: saline): 97 % of control and 98 % of control and 109 % of control | T/C (dose: 100.0 mg/kg/injection, schedule: Q01DX009 (ip), vehicle: saline): 100 % of control and 107 % of control | T/C [4]: 100 % of control and 102 % of control

Nc1n[nH]c([N+](=O)[O-])n1
T/C (dose: 100.0 mg/kg/injection, schedule: Q01DX001 (ip), vehicle: saline sonified): 108 % of control | T/C (dose: 200.0 mg/kg/injection, schedule: Q01DX001 (ip), vehicle: saline sonified): 100 % of control | T/C (dose: 400.0 mg/kg/injection, schedule: Q01DX001 (ip), vehicle: saline sonified): 100 % of control

CCN(CC)CCNC(=O)c1ccc(COc2ccccc2)cc1
T/C (dose: 50.0 mg/kg/injection, schedule: Q01DX005 (ip), vehicle: saline): 97 % of control | T/C (dose: 100.0 mg/kg/injection, schedule: Q01DX005 (ip), vehicle: saline): 111 % of control | T/C (dose: 200.0 mg/kg/injection, schedule: Q01DX005 (ip), vehicle: saline): 97 % of control

C[C@@H]1C[C@H]2C(=CC1=O)CC[C@@H]1[C@@H]2CC[C@]2(C)[C@@H](O)CC[C@@H]12
T/C [5]: 100 % of control | T/C [6]: 109 % of control | T/C [7]: 109 % of control

O=C1CCN2C=CC=CC2=N1
T/C [4]: 104 % of control | T/C (dose: 200.0 mg/kg/injection, schedule: Q04DX003 (ip), vehicle: saline): 100 % of control | T/C (dose: 400.0 mg/kg/injection, schedule: Q04DX003 (ip), vehicle: saline): 95 % of control

COC(=O)c1ccccc1NCCCC(=O)O
T/C [2]: 91 % of control | T/C [3]: 108 % of control | T/C [8]: 100 % of control

O=C(C=C(C(F)(F)F)C(F)(F)F)c1cccc(C(F)(F)F)c1
T/C [9]: 110 % of control | T/C [10]: 120 % of control | T/C [1]: 122 % of control | T/C [11]: 110 % of control | T/C [12]: 122 % of control

CNc1ncnc2nc(OC)[nH]c12
T/C (dose: 0.78 mg/kg/injection, schedule: Q01DX009 (ip), vehicle: saline with Tween-80): 95 % of control | T/C (dose: 1.56 mg/kg/injection, schedule: Q01DX009 (ip), vehicle: saline with Tween-80): 100 % of control | T/C (dose: 3.13 mg/kg/injection, schedule: Q01DX009 (ip), vehicle: saline with Tween-80): 98 % of control | T/C [9]: 101 % of control

NC(=O)c1ccc(-c2c3ccccc3cc3c2ccc2ccccc23)cc1
T/C [13]: 95 % of control | T/C [5]: 89 % of control | T/C [6]: 89 % of control | T/C [7]: 106 % of control

Brc1ccc(Oc2ccccc2)cc1
T/C [2]: 122 % of control | T/C (dose: 266.0 mg/kg/injection, schedule: Q04DX003 (ip), vehicle: saline with Tween-80): 100 % of control | T/C [8]: 103 % of control | T/C (dose: 600.0 mg/kg/injection, schedule: Q04DX003 (ip), vehicle: saline with Tween-80): 96 % of control

C[N+]1(C)CCCC1
T/C (dose: 6.25 mg/kg/injection, schedule: Q04DX003 (ip), vehicle: saline): 100 % of control | T/C (dose: 12.5 mg/kg/injection, schedule: Q04DX003 (ip), vehicle: saline): 100 % of control

CCCOC(=O)/C=C(\Br)C(=O)OCCC
T/C [1]: 108 % of control | T/C [12]: 110 % of control | T/C (dose: 50.0 mg/kg/injection, schedule: Q04DX003 (ip), vehicle: saline with Tween-80): 95 % of control

Cc1ccc(S(=O)(=O)N(C)c2ccc(C#N)c(Cl)c2Cl)cc1
T/C [2]: 90 % of control | T/C [3]: 86 % of control | T/C [8]: 90 % of control

Nc1ncnc2nc(-c3ccc(Br)cc3)[nH]c12
T/C (dose: 100.0 mg/kg/injection, schedule: Q01DX001 (ip), vehicle: saline with Tween-80): 94 % of control | T/C (dose: 200.0 mg/kg/injection, schedule: Q01DX001 (ip), vehicle: saline with Tween-80): 106 % of control

C#CCOCC1CN(c2ccccc2)C(=O)O1 (configuration not stated)
T/C (dose: 100.0 mg/kg/injection, schedule: Q04DX003 (ip), vehicle: Klucel (hydroxypropylcellulose) (HPC)): 95 % of control | T/C (dose: 200.0 mg/kg/injection, schedule: Q04DX003 (ip), vehicle: Klucel (hydroxypropylcellulose) (HPC)): 100 % of control | T/C (dose: 400.0 mg/kg/injection, schedule: Q04DX003 (ip), vehicle: Klucel (hydroxypropylcellulose) (HPC)): 100 % of control

CC1=CC(=O)c2c(O)ccc(O)c2C1=O
T/C (dose: 1.25 mg/kg/injection, schedule: Q01DX009 (ip), vehicle: alcohol): 114 % of control | T/C (dose: 2.5 mg/kg/injection, schedule: Q01DX009 (ip), vehicle: alcohol): 122 % of control

NC(=O)c1c(N)sc2c1CCCC2
T/C [9]: 86 % of control | T/C [10]: 86 % of control | T/C [11]: 95 % of control

CC(C#N)(Nc1ccccc1)c1ccco1 (configuration not stated)
T/C (dose: 6.25 mg/kg/injection, schedule: Q04DX003 (ip), vehicle: other): 100 % of control | T/C (dose: 12.5 mg/kg/injection, schedule: Q04DX003 (ip), vehicle: other): 100 % of control | T/C (dose: 25.0 mg/kg/injection, schedule: Q04DX003 (ip), vehicle: other): 100 % of control

CN(C)CCC(O)c1c[nH]c2ccccc12 (configuration not stated)
T/C [5]: 99 % of control | T/C [6]: 97 % of control | T/C [7]: 90 % of control

CC(O)C#N (configuration not stated)
T/C (dose: 1.25 mg/kg/injection, schedule: Q01DX009 (ip), vehicle: saline): 108 % of control | T/C (dose: 2.5 mg/kg/injection, schedule: Q01DX009 (ip), vehicle: saline): 101 % of control | T/C (dose: 5.0 mg/kg/injection, schedule: Q01DX009 (ip), vehicle: saline): 101 % of control

C1CC[N-]CC1.C1CC[N-]CC1.C1CC[N-]CC1.C1CC[N-]CC1.N#C[S-].N#C[S-].[Ni]
T/C (dose: 5.0 mg/kg/injection, schedule: Q01DX009 (ip), vehicle: saline with Tween-80): 100 % of control | T/C (dose: 10.0 mg/kg/injection, schedule: Q01DX009 (ip), vehicle: saline with Tween-80): 100 % of control | T/C (dose: 20.0 mg/kg/injection, schedule: Q01DX009 (ip), vehicle: saline with Tween-80): 108 % of control

COc1cccc(C2N=NC3=C(CCCC3)N2O)c1O (configuration not stated)
T/C (dose: 25.0 mg/kg/injection, schedule: Q01DX009 (ip), vehicle: Klucel (hydroxypropylcellulose) (HPC)): 95 % of control | T/C (dose: 50.0 mg/kg/injection, schedule: Q01DX009 (ip), vehicle: Klucel (hydroxypropylcellulose) (HPC)): 87 % of control | T/C (dose: 200.0 mg/kg/injection, schedule: Q01DX009 (ip), vehicle: Klucel (hydroxypropylcellulose) (HPC)): 96 % of control

COc1ccc2c(c1)-c1nn(CCO)c(-c3ccncc3)c1CC2
T/C (dose: 100.0 mg/kg/injection, schedule: Q04DX002 (ip), vehicle: DMSO): 100 % of control | T/C (dose: 200.0 mg/kg/injection, schedule: Q04DX002 (ip), vehicle: DMSO): 99 % of control | T/C (dose: 400.0 mg/kg/injection, schedule: Q04DX002 (ip), vehicle: DMSO): 103 % of control

CC1=NNB(O)c2ccsc21
T/C [10]: 107 % of control | T/C [11]: 90 % of control | T/C [13]: 96 % of control

[O-][n+]1c(/C=C/c2cccc3ccccc23)cccc1/C=C/c1cccc2ccccc12
T/C (dose: 50.0 mg/kg/injection, schedule: Q01DX005 (ip), vehicle: saline + Tween-80 + alcohol): 94 % of control | T/C (dose: 100.0 mg/kg/injection, schedule: Q01DX005 (ip), vehicle: saline + Tween-80 + alcohol): 96 % of control | T/C (dose: 200.0 mg/kg/injection, schedule: Q01DX005 (ip), vehicle: saline + Tween-80 + alcohol): 96 % of control

O=C(c1ccccc1)N1C=CN(C(=O)c2ccccc2)C1c1ncc[nH]1
T/C [13]: 105 % of control | T/C [5]: 105 % of control | T/C [6]: 106 % of control

COC(=O)c1c(-c2ccccc2)c(-c2ccccc2)nn(-c2ccccc2)c1=O
T/C (dose: 400.0 mg/kg/injection, schedule: Q01DX001 (ip), vehicle: saline with Tween-80): 87 % of control

CCOC(=O)C1SC(=S)N(C)C1=O (configuration not stated)
T/C [13]: 94 % of control | T/C [5]: 100 % of control | T/C [6]: 100 % of control
